Structures are written as SMILES.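 Assay format: 96-well plates, 48-hour exposure. The concentration for 50% growth inhibition is given as GI50. TGI: total growth inhibition.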

Assay in all cases: NCI tumour cell line growth inhibition, 48 h
Experiment [1] concerns OVCAR-5 ovarian.
Experiment [2] concerns M14 melanoma.
In experiment [3] the test system is COLO 205 colon.
Experiment [4] concerns SK-OV-3 ovarian.
Experiment [5] relates to ACHN renal.
In experiment [6] the test system is HOP-92 NSCLC.
In experiment [7] the test system is SW-620 colon.
Experiment [8] relates to SNB-75 CNS.
Experiment [9] has as its system HCT-116 colon.
For experiment [10], the system named is NCI-H226 lung.

Turning to `C=C1C(=O)O[C@H]2[C@H]1CC/C(Cn1cc(Cn3ccc4ccccc43)nn1)=C\CC[C@@]1(C)O[C@@H]21`, the GI50 in [1] is 1.59 µM; in [2], 1.25 µM; in [3], 1.71 µM; in experiment [4], 16 µM; in [5] it was 1.18 µM; in experiment [6], 1.01 µM. In addition, the GI50 in experiment [7] is 1.42 µM; in experiment [8], 2.61 µM; in [9], 0.762 µM; in experiment [10] it was 1.53 µM. For the same compound, the TGI was found to be 3.21 µM in experiment [1]; 2.79 µM in experiment [2]; 3.41 µM in [3]; 30.1 µM in [4]; 2.43 µM in experiment [5]; 2.29 µM in experiment [6]. Also, the TGI in experiment [7] was 3.01 µM; in experiment [8], 15.6 µM; in [9], 2.15 µM; in experiment [10], 3.06 µM.

As for `Cc1cc(C)c(O)c(Cc2cccc(Cc3cc(C)cc(C)c3O)c2O)c1`, the TGI in experiment [1], in experiment [2], in experiment [3], in experiment [4], in experiment [5] and in [6] was more than 100 µM in each case. The TGI in experiment [7], in [8] and in experiment [9] was more than 100 µM throughout.

Turning to `Cc1ccc([N+](=O)[O-])cc1NC(=O)C(=O)Cc1occc(=O)c1O`, the TGI in experiment [1], in [3], in experiment [4], in experiment [5], in [6] and in experiment [7] was more than 100 µM throughout. The TGI in [8] and in experiment [10] was more than 100 µM each time.

`Nc1ncnc2c1nc(-c1ccccc1)n2C1OC(CO)C(O)C1O` (stereo unspecified): the TGI in [1], in experiment [2], in experiment [3], in experiment [4], in [5] and in [6] was more than 100 µM throughout. The TGI in experiment [7], in experiment [8], in experiment [9] and in experiment [10] was more than 100 µM in each case.

Take `Cc1ccc(S(=O)(=O)/N=c2\ssc(Nc3ccccc3)c2Cl)cc1`: the GI50 is 21.1 µM in experiment [1]; 22.8 µM in experiment [2]; 15.3 µM in experiment [4]; 9.58 µM in [5]; 7.43 µM in [6]; 19.2 µM in experiment [10]. The TGI in [1] is more than 50 µM; in experiment [2], more than 50 µM; in [4] it was more than 50 µM; in [5], 22.5 µM; in experiment [6], more than 50 µM; in [10] it was more than 50 µM.

For `O=C(/C=C\c1cccc2ccccc12)c1cccs1`, the TGI in [1] is 32.8 µM; in [2], 28.3 µM; in [3] it was 29.3 µM; in experiment [4], 31.7 µM; in [5], 24.1 µM; in experiment [6], 25.8 µM. Further, the TGI in experiment [7] was found to be 2.99 µM; in experiment [8], 61.3 µM; in experiment [9], 10.7 µM.

For the compound `NC(=O)N/N=C(\C(=O)C(=O)Nc1ccc(Cl)c(C(F)(F)F)c1)c1nc2ccc(C(=O)c3ccccc3)cc2[nH]c1=O`, the TGI is more than 100 µM in [1]; more than 100 µM in [2]; more than 100 µM in [3]; more than 100 µM in experiment [4]; more than 100 µM in experiment [5]; 47.3 µM in [6]. Besides, the TGI in [7], in [9] and in experiment [10] was more than 100 µM in each case.

In the case of `Cc1cc(O)c(C(c2cccnc2)c2c(O)cc(C)[nH]c2=O)c(=O)[nH]1`, the TGI in experiment [1], in [2], in experiment [3], in experiment [4], in [5] and in [9] was more than 100 µM in each case.

In the case of `CCOC(=O)C(Cc1ccccc1)NC(=O)c1ccc(N=NN(C)C)cc1` (stereo unspecified), the TGI in experiment [1], in experiment [2], in experiment [3], in [4], in experiment [5] and in experiment [7] was more than 100 µM in each case. Besides, the TGI in experiment [8], in experiment [9] and in experiment [10] was more than 100 µM throughout.

`C/C(CC(=O)NNc1ccc([N+](=O)[O-])cc1)=N\Nc1ccc([N+](=O)[O-])cc1`: the GI50 is 99.4 µM in [1]; 2.11 µM in experiment [2]; 3.8 µM in [3]; 5.45 µM in experiment [5]; 7.94 µM in experiment [6]; 3.84 µM in experiment [7]. The GI50 is 22.1 µM in experiment [8], 6.04 µM in experiment [9] and 17.9 µM in [10]. Moreover, the TGI was more than 100 µM in [1]; 18.3 µM in [2]; more than 100 µM in experiment [3]; more than 100 µM in [5]; 28.3 µM in experiment [6]; more than 100 µM in experiment [7]. The values for the TGI in [8], in experiment [9] and in experiment [10] were 93.5 µM, 28.3 µM and more than 100 µM, respectively.

Consider `C#CCN=C(N/N=C/c1ccc([N+](=O)[O-])o1)NS(=O)(=O)c1cc(C)c(Cl)cc1SCC(N)=O`, for which the GI50 is 19.9 µM in [1]; 26.9 µM in [3]; 49.2 µM in [4]; 16.7 µM in [5]; 4.44 µM in [7]; 25.8 µM in experiment [8]. For the same compound, the GI50 was 8.03 µM in [9] and 20.1 µM in experiment [10]. For the same compound, the TGI in experiment [1] is 34.5 µM; in [3], 84.4 µM; in experiment [4], more than 100 µM; in experiment [5] it was 36.8 µM; in experiment [7], 17.1 µM; in experiment [8], 59.8 µM. Moreover, the TGI in experiment [9] was determined as 20.3 µM; in experiment [10] it was 40.5 µM.

`COC(=O)N/N=C(/CCN1CCCC1)CC(c1ccccc1)c1c(O)c2ccccc2oc1=O` (stereo unspecified): the TGI in [1], in experiment [2], in [3], in experiment [4], in [5] and in experiment [7] was more than 100 µM throughout. Besides, the TGI in [8], in experiment [9] and in experiment [10] was more than 100 µM throughout.

Turning to `CC(=O)NC(CCCCNC(=O)N(CCCl)N=O)C(=O)NCc1ccccc1` (stereo unspecified), the TGI in [2], in experiment [3], in experiment [5], in experiment [6], in experiment [7] and in experiment [8] was more than 100 µM in each case. Moreover, the TGI in experiment [9] and in experiment [10] was more than 100 µM each time.

On to `COc1ccc(C(=O)N2CCc3c([nH]c4ccccc34)C2C(=O)O)o1` (stereo unspecified), for which the TGI in experiment [2], in [3], in experiment [4], in [5], in experiment [6] and in experiment [7] was more than 10 µM in each case. Moreover, the TGI in experiment [8] and in experiment [9] was more than 10 µM each time.

In the case of `CN=C1Nc2ccc(Cl)cc2C(c2ccccc2)=NN1C`, the TGI is more than 100 µM in [1]; more than 100 µM in experiment [2]; more than 100 µM in experiment [3]; more than 100 µM in experiment [5]; 77.5 µM in [6]; more than 100 µM in [7]. Besides, the TGI in experiment [8], in experiment [9] and in experiment [10] was more than 100 µM throughout.

`CCC1=C(C)/C(=C/c2[nH]c(CBr)c(CC)c2C)N=C1CBr`: the TGI worked out at 33.1 µM in [2]; 30.2 µM in experiment [3]; 45 µM in [4]; 26.7 µM in experiment [6]; 25.3 µM in experiment [7]; 55.9 µM in [8].

Take `C#CCOCn1cnc2c(=S)nc[nH]c21`: the TGI in [1], in experiment [2], in experiment [3], in experiment [4], in [5] and in [6] was more than 100 µM throughout. The TGI was more than 100 µM in experiment [7], 98.9 µM in experiment [8] and more than 100 µM in experiment [10].

As to `COc1ccc(-c2nn(-c3cccc(NC(=O)Nc4ccc(Cl)c(C(F)(F)F)c4)c3)cc2-c2ccncc2)cc1Cl`, the GI50 is 4.36 µM in [1]; 1.9 µM in experiment [2]; 2.01 µM in experiment [3]; 4.31 µM in experiment [4]; 2.32 µM in experiment [5]; 3.66 µM in experiment [7]. In addition, the values for the GI50 in experiment [8], in experiment [9] and in [10] were 1.91 µM, 2.02 µM and 2.53 µM, respectively. Also, the TGI in experiment [1] was 30.8 µM; in [2], 4.44 µM; in [3], 4.2 µM; in experiment [4] it was more than 100 µM; in experiment [5], 13.8 µM; in [7], 63.9 µM. The TGI in experiment [8] stood at 9.56 µM; in experiment [9], 8.6 µM; in [10] it was 8.22 µM.

On to `COC(=O)CCC(NC(=O)C(C)NC(=O)COC1C(O)C(OC(=O)CCNc2c3ccccc3nc3cccc([N+](=O)[O-])c23)OC(OCc2ccccc2)C1NC(C)=O)C(N)=O` (stereo unspecified), for which the TGI was more than 10 µM in [1]; more than 10 µM in experiment [2]; more than 10 µM in experiment [4]; more than 10 µM in experiment [5]; more than 10 µM in experiment [6]; 4.44 µM in [7]. In addition, the TGI in experiment [8] is more than 10 µM; in [9], 9.11 µM; in [10], more than 10 µM.

Turning to `Nc1ncnc(NC2C=C(CO)C(O)C2O)c1[N+](=O)[O-]` (stereo unspecified), the TGI in experiment [1] is more than 100 µM; in experiment [2], more than 100 µM; in experiment [3], more than 100 µM; in experiment [4], more than 100 µM; in experiment [5] it was more than 100 µM; in [7], 59 µM. The TGI is more than 100 µM in [8], 75.4 µM in experiment [9] and more than 100 µM in [10].

With `COC(=O)C1=CN=C(C(=O)OC)NN1`, the TGI in [2], in experiment [3], in [4], in experiment [5], in [6] and in experiment [7] was more than 100 µM throughout. For the same compound, the TGI in experiment [8], in experiment [9] and in [10] was more than 100 µM throughout.

For the compound `O=C(O)c1ccc(O)c(N=Nc2cc(S(=O)(=O)O)c3ccccc3c2O)c1`, the TGI was more than 100 µM in experiment [1]; more than 100 µM in [3]; more than 10 µM in experiment [4]; more than 100 µM in experiment [5]; more than 100 µM in experiment [6]; more than 100 µM in experiment [7]. For the same compound, the TGI in experiment [8] was more than 100 µM; in experiment [9] it was 37.4 µM; in [10], more than 100 µM.

Consider `C=C1C(=O)O[C@H]2[C@H]1CC/C(COC(=O)CCCCCCCCC(=O)OC/C1=C/CC[C@@]3(C)O[C@H]3[C@H]3OC(=O)C(=C)[C@@H]3CC1)=C\CC[C@@]1(C)O[C@@H]21`, for which the GI50 in experiment [1] is 2.26 µM; in experiment [2], 1.63 µM; in [3] it was 1.89 µM; in experiment [4], 12 µM; in experiment [5], 1.8 µM; in experiment [6], 1.94 µM. The GI50 in [7] is 1.87 µM; in [8] it was 4.8 µM; in experiment [10], 2.75 µM. The TGI in experiment [1] came out at 5.56 µM; in [2], 3.41 µM; in [3] it was 4.15 µM; in experiment [4] it was 25.2 µM; in experiment [5], 3.55 µM; in [6] it was 4.38 µM. Also, the figures for the TGI in [7], in experiment [8] and in [10] were 3.87 µM, 19.6 µM and 7.24 µM, respectively.

`COc1ccc(CNC2=C(NC(C)=O)C(=O)c3ccccc3C2=O)cc1`: the TGI is more than 50 µM in experiment [2]; 16.4 µM in experiment [3]; more than 50 µM in experiment [4]; 8.69 µM in [5]; 13 µM in experiment [6]; 14.9 µM in [7]. The results for the TGI in experiment [8], in [9] and in experiment [10] were 49.5 µM, 19.9 µM and more than 50 µM, respectively.

For the origin of these results see PubChem BioAssay (NCI).
